Here are results for 3 compounds from publication PMC10220492, “Investigating the mechanism of photoisomerization in jellyfish rhodopsin with the counterion at an atypical position” (The Journal of Biological Chemistry, 2023).

In this assay the target is T1, JelRh (box jellyfish rhodopsin) (Carybdea rastonii, UniProt B6F0Y5).
T1 construct: gene cubop; opsin gene in pFastBac HT vector with C-terminal rho 1D4 tag (TETSQVAPA), Sf9 baculovirus expression, DDM-solubilized, 1D4-purified, wild type reconstituted in PC liposomes
T1 sequence (B6F0Y5 1-330): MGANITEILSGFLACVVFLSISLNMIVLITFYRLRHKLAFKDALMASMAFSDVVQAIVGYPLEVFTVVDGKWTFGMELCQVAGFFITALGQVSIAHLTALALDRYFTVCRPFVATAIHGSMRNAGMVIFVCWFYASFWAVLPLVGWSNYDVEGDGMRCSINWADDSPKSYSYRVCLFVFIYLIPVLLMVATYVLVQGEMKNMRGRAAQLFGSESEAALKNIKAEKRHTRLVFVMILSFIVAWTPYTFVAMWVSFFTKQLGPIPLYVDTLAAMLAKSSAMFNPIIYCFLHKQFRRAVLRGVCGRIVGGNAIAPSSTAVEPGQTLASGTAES
The experiment in a line: low-temperature UV-visible and FTIR difference spectroscopy of reconstituted pigment. The class given is binding. The settings on record: 77 K.

For `CC1=C(/C=C/C(C)=C\C=C\C(C)=C\C=O)C(C)(C)CCC1` [9-cis-retinal], for the setting “covalent (protonated Schiff base), 9-cis bound form (Iso-JelRh) made in situ by >520 nm illumination of Batho”, the “low-temperature UV-visible and FTIR difference spectroscopy of reconstituted pig” value was “confirming the formation of the 9-cis bound form (so-called Iso-rhodopsin or Iso)”. As to `CC1=C(/C=C/C(C)=C/C=C\C(C)=C\C=O)C(C)(C)CCC1` [11-cis-retinal], where the note is “covalent (protonated Schiff base), PC liposomes, hydrated film, 11-cis-retinal added at 30 uM to membranes”, the “low-temperature UV-visible and FTIR difference spectroscopy of reconstituted pig” value is given as “The sample after membrane preparation was reconstituted with 11-cis-retinal overnight”. `CC1=C(/C=C/C(C)=C/C=C/C(C)=C/C=O)C(C)(C)CCC1` [all-trans-retinal]: the “low-temperature UV-visible and FTIR difference spectroscopy of reconstituted pig” value (covalent (Schiff base), all-trans bound Batho intermediate made in situ by 500 nm illumination) is on record as “the isomerization from 11-cis to all-trans retinal in JelRh is similar to that of BovRh”.
